Test results from ChEMBL document CHEMBL5500321, “Synthesis and clinical application of small-molecule drugs approved to treat prostatic cancer” (Eur J Med Chem, 2023).

Columns and labels:
DU-145 = test: Antimitotic activity against human DU-145 cells assessed as reduction in cell proliferation incubated for 72 hrs by alamar blue based fluorescence spectrophotometric analysis; type: functional; conditions: DU-145, 72 h
Tubulin = test: Inhibition of microtubule (unknown origin) polymerization; type: protein-complex assay, Homo sapiens
[1] = Antiproliferative activity against human LNCaP/AR cells assessed as reduction in cell growth measured after 3 days by CellTiter-Glo assay; type: functional, cell-based; conditions: 72 h
4T1 = test: Antitumor activity against mouse 4T1 cells xenografted in BALB/c mouse model assessed as reduction in tumor growth at 100 microg/ml measured after 20 days relative to control; type: functional; parameters: scale not given: the % may be the effect or the level left; conditions: dose 100 µg/ml; time 20 day
ZR-75-1 = test: Antiproliferative activity against human ZR-75-1 cells assessed as reduction in cell growth measured after 5 days by Celltiter-Glo assay; type: functional, cell-based; conditions: ZR-75-1, 120 h
T47D = test: Antiproliferative activity against human T47D cells assessed as reduction in cell growth incubated for 48 hrs by MTT assay; type: functional, cell-based

C[C@]12CC[C@@H]3c4ccc(OC(=O)N(CCCl)CCCl)cc4CC[C@H]3[C@@H]1CC[C@@H]2OP(=O)(O)O [ESTRAMUSTINE PHOSPHATE SODIUM]
IC50 (DU-145): 16000 nM

CC(=O)O[C@@]12CO[C@@H]1C[C@H](O)[C@@]1(C)C(=O)[C@H](O)C3=C(C)[C@@H](OC(=O)[C@H](O)[C@@H](NC(=O)OC(C)(C)C)c4ccccc4)C[C@@](O)([C@@H](OC(=O)c4ccccc4)[C@H]21)C3(C)C [DOCETAXEL ANHYDROUS]
IC50 (Tubulin): 200 nM

CC(O)(CS(=O)(=O)c1ccc(F)cc1)C(=O)Nc1ccc(C#N)c(C(F)(F)F)c1 (stereo unspecified) [BICALUTAMIDE]
IC50 [1]: 160 nM

CO[C@H]1C(=O)[C@]2(C)[C@@H](OC)C[C@H]3OC[C@@]3(OC(C)=O)[C@H]2[C@H](OC(=O)c2ccccc2)[C@]2(O)C[C@H](OC(=O)[C@H](O)[C@@H](NC(=O)OC(C)(C)C)c3ccccc3)C(C)=C1C2(C)C [CABAZITAXEL]
Activity (4T1): 56.2%

CC1(C)NC(=O)N(c2ccc([N+](=O)[O-])c(C(F)(F)F)c2)C1=O [NILUTAMIDE]
IC50 (ZR-75-1): 75 nM
IC50 (T47D): 87 nM
